Measurements reported in patent US10167299B2, “1-(3-aminopropyl) substituted cyclic amine compounds, preparation method therefor, and pharmaceutical compositions and uses thereof” (SHANGHAI INSTITUTE OF MATERIA MEDICA, CHINESE ACADEMY OF …, priority 2013, dated 2019).
Read-outs that look alike come from different tables or passages of the source.

Target: CCR5 (Homo sapiens (Human), UniProt P51681)
Experiment: Calcium flux inhibition experiment
Assay type: cell-based
Settings: for calcium influx inhibition effect in words, versus positive control compounds: conclusion from Table 1
Text: Experiment apparatus: FlexStation II
Experiment materials: HEK293/CCR5-Gα16 cell line, Fluo-4calcium dye (fluorescent-4 calcium ion dye) and FlexStation instrument.
Experiment theory: Activation of the receptor can cause the activation of Gα16 protein, thereby activating phospholipase C (PLC) to generate IP3 and DAG by establishing CCR5 and Ga16 co-transfected cell line. IP3 can bind to IP3 receptors on the endoplasmic reticulum and mitochondria in a cell, which can cause the release of intracellular calcium. Thus, determination of changes in intracellular calcium can be used as a method to detect CCR5 activation state. Fluo-4/AM is a fluorescent probe indicator for calcium used to measure calcium ion. As a non-polar lipid-soluble compound, after it enters into cells, AM group is dissociated to release Fluo-4 under the effect of cell lipolysis enzyme. Fluo-4 is a polar molecule and not easy to go through the lipid bilayer membrane, therefore it can stay within the cells for a long time. Ultimately, the level of activated Ga protein can be reflected by measuring the excited fluorescence intensity. If the screened compound can activate CCR5, it can greatly increase the calcium flux reaction; on the contrary, if the screened compound can antagonize CCR5, it can greatly reduce calcium flux reaction.
1. HEK293 cells which can stably express CCR5 were inoculated in a 96-well plate and incubated overnight.
2. The medium in each well into which cells were innoculated was removed and 40 μl/well of freshly prepared dye was added. The plate was placed in a 37° C. incubator and incubated for 40 minutes at constant temperature.
3. The medicament to be determined was diluted with calcium buffer to eight concentration gradients, which is 1×10^−4 M, 1×10^−5 M, 1×10^−6 M, 1×10^−7 M, 1×10^−8 M, 1×10^−9 M, 1×10^−10 M, and 1×10^−11 M, respectively, and homogeneously mixed.
4. The dye was removed. Freshly prepared calcium buffer was used to wash for one time, 50 μl of calcium buffer was added.
5. FlexStation II was used for detection. 25 μl of calcium buffer containing the medicament to be determined was added automatically from the 15th second.

[1] = HEK293/CCR5-Gα16 cell line, calcium flux, read-out: CCR5 IC50

Chain of CCR5 (P51681 whole entry): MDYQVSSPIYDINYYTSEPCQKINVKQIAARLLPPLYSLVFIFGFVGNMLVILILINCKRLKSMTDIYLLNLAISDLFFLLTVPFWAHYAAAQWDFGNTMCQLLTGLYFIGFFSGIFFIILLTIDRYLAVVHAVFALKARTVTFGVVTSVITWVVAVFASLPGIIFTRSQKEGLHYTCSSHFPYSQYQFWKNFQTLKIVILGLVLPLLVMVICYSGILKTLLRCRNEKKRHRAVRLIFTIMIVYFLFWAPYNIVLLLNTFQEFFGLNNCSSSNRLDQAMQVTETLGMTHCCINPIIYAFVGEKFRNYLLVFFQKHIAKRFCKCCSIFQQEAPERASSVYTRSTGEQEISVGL

Structure (SMILES)	IC50 [1] [nM]	calcium influx inhibition effect in words, versus positive control compounds	IC50 [nM]
Cc1nnc(C(C)C)n1C1CC2CCC(C1)N2CC[C@H](NC(=O)Cc1nnn[nH]1)c1ccc(F)s1 (stereo partly drawn) [Compound 163, N-[(1S)-3-[exo-3-(3-isopropyl-5-methyl-4H-1,2,4-triazol-4-yl)-8-azabicyclo[3.2.1]octane-8-yl]-1-(5-fluorothiophen-2-yl)propyl]-2-(1H-tetrazol-5-yl)acetamide]	13.3	–	–
Cc1nnc(C(C)C)n1C1CC2CCC(C1)N2CC[C@H](NC(=O)Cn1ncnn1)c1ccc(F)s1 (stereo partly drawn) [Compound 157, N-[(1S)-3-[exo-3-(3-isopropyl-5-methyl-4H-1,2,4-triazol-4-yl)-8-azabicyclo[3.2.1]octane-8-yl]-1-(5-fluorothiophen-2-yl)propyl]-2-(2H-tetrazol-2-yl)acetamide]	1.23	better than the positive control compounds	–
CNC(=O)c1ccc([C@H](CCN2C3CCC2CC(n2c(C)nnc2C(C)C)C3)NC(=O)C2CCCC2)s1 (stereo partly drawn) [Compound 142, 5-[(1S)-1-(cyclopentaneformamido)-3-[exo-3-(3-isopropyl-5-methyl-4H-1,2,4-triazol-4-yl)-8-azabicyclo[3.2.1]octane-8-yl]-propyl]-N-methylthiophene-2carboxamide]	9.55	comparable to the positive control compounds	–
CC(=O)Nc1ccc([C@H](CCN2C3CCC2CC(n2c(C)nnc2C(C)C)C3)NC(=O)C2CCCCC2)s1 (stereo partly drawn) [Compound 138, N-[(1S)-3-[exo-3-(3-isopropyl-5-methyl-4H-1,2,4-triazol-4-yl)-8-azabicyclo[3.2.1]octane-8-yl]-1-(5-acetamidothiophen-2-yl)propyl]cyclohexane-1-carboxamide]	9.75	comparable to the positive control compounds	–
CC(=O)N[C@@H](CCN1C2CCC1CC(n1c(C)nc3c1CCN(C(=O)C(C)C)C3)C2)c1cccc(F)c1 (stereo partly shown) [PF-232798, reference compound]	8.29	–	–
Cc1nnc(C(C)C)n1C1CC2CCC(C1)N2CC[C@H](NC(=O)Cn1ncnn1)c1cccs1 (stereo partly drawn) [Compound 152, N-[(1S)-3-[exo-3-(3-isopropyl-5-methyl-4H-1,2,4-triazol-4-yl)-8-azabicyclo[3.2.1]octane-8-yl]-1-(thiophen-2-yl)propyl]-2-(2H-tetrazol-2-yl)acetamide]	7.98	comparable to the positive control compounds	–
Cc1nnc(C(C)C)n1C1CC2CCC(C1)N2CC[C@H](NC(=O)Cn1ncnn1)c1ccc(Cl)s1 (stereo partly drawn) [Compound 156, N-[(1S)-3-[exo-3-(3-isopropyl-5-methyl-4H-1,2,4-triazol-4-yl)-8-azabicyclo[3.2.1]octane-8-yl]-1-(5-chlorothiophen-2-yl)propyl]-2-(2H-tetrazol-2-yl)acetamide]	9.85	comparable to the positive control compounds	–
CC(=O)N1CCc2c(nc(C)n2C2CC3CCC(C2)N3CC[C@H](NC(=O)C2CCC(F)(F)CC2)c2ccsc2)C1 (stereo partly drawn) [Compound 42, 4,4-difluoro-N-{(1S)-1-(thiophen-3-yl)-3-[(3-endo)-3-(5-acetyl-2-methyl-4,5,6,7-tetrahydro-1H-imidazo[4,5-c]pyridin-1-yl)-8-azabicyclo[3.2.1]octane-8-yl]propyl}cyclohexane-1-carboxamide]	15.9	–	–
Cc1nnc(C(C)C)n1C1CC2CCC(C1)N2CC[C@H](NC(=O)C1CCCCC1)c1ccc(Cl)s1 (stereo partly drawn) [Compound 113, N-[(1S)-3-[exo-3-(3-isopropyl-5-methyl-4H-1,2,4-triazol-4-yl)-8-azabicyclo[3.2.1]octane-8-yl]-1-(5-chlorothiophen-2-yl)propyl]cyclohexane-1-carboxamide]	8.14	–	–
Cc1ccc([C@H](CCN2C3CCC2CC(n2c(C)nnc2C(C)C)C3)NC(=O)Cn2ncnn2)s1 (stereo partly drawn) [Compound 153, N-[(1S)-3-[exo-3-(3-isopropyl-5-methyl-4H-1,2,4-triazol-4-yl)-8-azabicyclo[3.2.1]octane-8-yl]-1-(5-methylthiophen-2-yl)propyl]-2-(2H-tetrazol-2-yl)acetamide]	13.4	–	–
CC(=O)N[C@@H](CCN1C2CCC1CC(n1c(C)nc3c1CCN(C(=O)C(C)C)C3)C2)c1cc(C)cs1 (stereo partly drawn) [Compound 145, N-{(1S)-3-[(3-endo)-3-(5-isobutyryl-2-methyl-4,5,6,7-tetrahydro-1H-imidazo[4,5-c]pyridin-1-yl)-8-azabicyclo[3.2.1]octane-8-yl]-1-(4-methylthiophen-2-yl)-propyl}acetamide]	13.3	–	–
COC(=O)c1ccc([C@H](CCN2C3CCC2CC(n2c(C)nnc2C(C)C)C3)NC(=O)C2CCC(F)(F)CC2)s1 (stereo partly drawn) [Compound 73, 4,4-difluoro-N-[(1S)-3-[exo-3-(3-isopropyl-5-methyl-4H-1,2,4-triazol-4-yl)-8-azabicyclo[3.2.1]octane-8-yl]-1-(5-methoxycarbonylthiophen-2-yl)propyl]cyclohexane-1-carboxamide]	–	–	8.23
CC(=O)N[C@@H](CCN1C2CCC1CC(n1c(C)nc3c1CCN(C(C)=O)C3)C2)c1ccc(C#N)s1 (stereo partly drawn) [Compound 144, N-{(1S)-3-[(3-endo)-3-(5-acetyl-2-methyl-4,5,6,7-tetrahydro-1H-imidazo[4,5-c]pyridin-1-yl)-8-azabicyclo[3.2.1]octane-8-yl]-1-(5-cyanothiophen-2-yl)-propyl}acetamide]	8.53	–	–
CCCC(=O)N1CCc2c(nc(C)n2C2CC3CCC(C2)N3CC[C@H](NC(C)=O)c2nccs2)C1 (stereo partly drawn) [Compound 123, N-{(1S)-3-[(3-endo)-3-(5-n-butyryl-2-methyl-4,5,6,7-tetrahydro-1H-imidazo[4,5-c]pyridin-1-yl)-8-azabicyclo[3.2.1]octane-8-yl]-1-(thiazol-2-yl)-propyl}acetamide]	12.1	better than the positive control compounds	–
Cc1nnc(C(C)C)n1C1CC2CCC(C1)N2CC[C@H](NC(=O)C1CCN(S(C)(=O)=O)CC1)c1ccc(C#N)s1 (stereo partly drawn) [Compound 149, N-[(1S)-3-[exo-3-(3-isopropyl-5-methyl-4H-1,2,4-triazol-4-yl)-8-azabicyclo[3.2.1]octane-8-yl]-1-(5-cyanothiophen-2-yl)propyl]-1-methylsulfonylpiperidine-4-carboxamide]	–	comparable to the positive control compounds	7.89
Cc1nnc(C(C)C)n1C1CC2CCC(C1)N2CC[C@H](NC(=O)CC#N)c1ccc(C#N)s1 (stereo partly drawn) [Compound 167, N-[(1S)-3-[exo-3-(3-isopropyl-5-methyl-4H-1,2,4-triazol-4-yl)-8-azabicyclo[3.2.1]octane-8-yl]-1-(5-cyanothiophen-2-yl)propyl]-2-cyanoacetamide]	–	–	7.98
CCc1ccc([C@H](CCN2C3CCC2CC(n2c(C)nnc2C(C)C)C3)NC(=O)C2CCCC2)s1 (stereo partly shown) [Compound 66]	2.02	better than the positive control compounds	–
Cc1nnc(C(C)C)n1C1CC2CCC(C1)N2CC[C@H](NC(=O)C1CCCCC1)c1nccs1 (stereo partly drawn) [Compound 116, N-[(1S)-3-[exo-3-(3-isopropyl-5-methyl-4H-1,2,4-triazol-4-yl)-8-azabicyclo[3.2.1]octane-8-yl]-1-(thiazol-2-yl)propyl]cyclohexane-1-carboxamide]	15.6	–	–
Cc1nnc(C(C)C)n1C1CC2CCC(C1)N2CC[C@H](NC(=O)C1CCCC1)c1ccc(Cl)s1 (stereo partly drawn) [Compound 114, N-[(1S)-3-[exo-3-(3-isopropyl-5-methyl-4H-1,2,4-triazol-4-yl)-8-azabicyclo[3.2.1]octane-8-yl]-1-(5-chlorothiophen-2-yl)propyl]cyclopentane-1-carboxamide]	9.27	–	–
Cc1nc2c(n1C1CC3CCC(C1)N3CC[C@H](NC(=O)C1CCC(F)(F)CC1)c1ccsc1)CCN(C(=O)C(C)C)C2 (stereo partly drawn) [Compound 43, 4,4-difluoro-N-{(1S)-1-(thiophen-3-yl)-3-[(3-endo)-3-(5-isobutyryl-2-methyl-4,5,6,7-tetrahydro-1H-imidazo[4,5-c]pyridin-1-yl)-8-azabicyclo[3.2.1]octane-8-yl]propyl}cyclohexane-1-carboxamide]	8.34	–	–
Cc1nnc(C(C)C)n1C1CC2CCC(C1)N2CC[C@H](NC(=O)Cn1ncnn1)c1ccc(C#N)s1 (stereo partly drawn) [Compound 155, N-[(1S)-3-[exo-3-(3-isopropyl-5-methyl-4H-1,2,4-triazol-4-yl)-8-azabicyclo[3.2.1]octane-8-yl]-1-(5-cyanothiophen-2-yl)propyl]-2-(2H-tetrazol-2-yl)acetamide]	–	comparable to the positive control compounds	8.23
Cc1nnc(C(C)C)n1C1CC2CCC(C1)N2CC[C@H](NC(=O)Cc1nnn[nH]1)c1cccs1 (stereo partly drawn) [Compound 158, N-[(1S)-3-[exo-3-(3-isopropyl-5-methyl-4H-1,2,4-triazol-4-yl)-8-azabicyclo[3.2.1]octane-8-yl]-1-(thiophen-2-yl)propyl]-2-(1H-tetrazol-5-yl)acetamide]	14.9	–	–
